US10040781B2, “Tank-binding kinase inhibitor compounds” (Gilead Sciences, Inc., priority 2014, dated 2018)
pIC50: −log10 of the molar value.

What was measured:
IKKε = IKKε (Homo sapiens (Human), UniProt Q14164); assay: IKKε TR-FRET enzymatic assay; assay type: biochemical; conditions: TR-FRET, 2×Km ATP; geometric mean of minimum four determinations; read-out: IKKe IC50
hJAK2 = hJAK2 (Homo sapiens (Human), UniProt O60674); assay: hJAK2 LANCE TR-FRET enzymatic assay; assay type: biochemical; conditions: read-out: JAK2 IC50
TBK1 = TBK1 (Homo sapiens (Human), UniProt Q9UHD2); assay: TBK1 TR-FRET enzymatic assay;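 note: phosphorylation of a biotinylated Ser/Thr peptide by purified full-length recombinant TBK1, read by TR-FRET after 240 min at 25 °C, IC50 is the geometric mean of at least four runs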
TBK1, sequence (Q9UHD2 whole entry): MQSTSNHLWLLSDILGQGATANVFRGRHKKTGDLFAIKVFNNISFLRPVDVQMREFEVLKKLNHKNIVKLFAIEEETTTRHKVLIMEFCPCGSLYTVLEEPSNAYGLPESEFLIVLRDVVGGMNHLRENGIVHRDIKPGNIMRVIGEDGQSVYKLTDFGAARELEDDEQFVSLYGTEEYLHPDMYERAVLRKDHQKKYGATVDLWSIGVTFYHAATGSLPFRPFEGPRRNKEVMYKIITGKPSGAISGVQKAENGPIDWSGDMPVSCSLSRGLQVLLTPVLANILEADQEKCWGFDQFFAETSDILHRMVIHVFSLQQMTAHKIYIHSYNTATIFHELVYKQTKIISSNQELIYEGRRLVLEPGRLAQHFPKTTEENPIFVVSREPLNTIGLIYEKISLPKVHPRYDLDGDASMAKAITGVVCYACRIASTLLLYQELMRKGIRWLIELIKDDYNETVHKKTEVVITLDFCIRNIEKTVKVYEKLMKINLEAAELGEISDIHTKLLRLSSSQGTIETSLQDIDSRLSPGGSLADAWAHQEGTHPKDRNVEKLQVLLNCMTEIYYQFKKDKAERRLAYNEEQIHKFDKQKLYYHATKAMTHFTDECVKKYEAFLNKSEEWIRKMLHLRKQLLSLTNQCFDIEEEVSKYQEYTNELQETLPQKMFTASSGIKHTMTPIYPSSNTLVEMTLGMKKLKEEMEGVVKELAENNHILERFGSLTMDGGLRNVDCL
Description: Enzymatic activity of IKKε and TBK1 was measured using a homogeneous time resolved fluorescence resonance energy transfer (TR-FRET) assay that monitors enzyme dependent phosphorylation of a biotinylated serine/threonine peptide substrate. […] TBK1 and IKKε were expressed and purified as full length recombinant proteins. Detection reagents for the assay were purchased from Cisbio. […] After an assay reaction time of 240 minutes at 25° C., reactions were terminated with EDTA.
All IC50 values represent geometric mean values of a minimum of four determinations.

IKKε, sequence (Q14164 whole entry): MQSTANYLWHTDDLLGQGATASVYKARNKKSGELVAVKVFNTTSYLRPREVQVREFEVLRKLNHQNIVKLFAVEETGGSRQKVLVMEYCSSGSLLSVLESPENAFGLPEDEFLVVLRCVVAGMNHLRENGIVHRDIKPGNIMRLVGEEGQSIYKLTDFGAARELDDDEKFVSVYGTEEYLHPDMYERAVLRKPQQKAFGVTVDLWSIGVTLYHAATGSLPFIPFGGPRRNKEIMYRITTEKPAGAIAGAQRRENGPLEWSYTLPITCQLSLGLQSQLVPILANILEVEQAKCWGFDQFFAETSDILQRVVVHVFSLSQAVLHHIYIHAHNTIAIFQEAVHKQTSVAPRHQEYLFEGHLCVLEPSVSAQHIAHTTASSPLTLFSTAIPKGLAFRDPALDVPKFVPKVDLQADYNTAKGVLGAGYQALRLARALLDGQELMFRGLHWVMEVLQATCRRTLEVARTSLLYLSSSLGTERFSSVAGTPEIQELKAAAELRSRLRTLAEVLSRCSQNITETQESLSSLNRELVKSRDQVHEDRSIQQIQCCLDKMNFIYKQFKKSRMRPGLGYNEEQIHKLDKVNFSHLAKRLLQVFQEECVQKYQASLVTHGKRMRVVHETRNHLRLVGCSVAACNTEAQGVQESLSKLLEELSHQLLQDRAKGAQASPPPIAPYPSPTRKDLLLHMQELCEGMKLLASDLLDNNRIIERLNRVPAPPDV
hJAK2, sequence (O60674 whole entry): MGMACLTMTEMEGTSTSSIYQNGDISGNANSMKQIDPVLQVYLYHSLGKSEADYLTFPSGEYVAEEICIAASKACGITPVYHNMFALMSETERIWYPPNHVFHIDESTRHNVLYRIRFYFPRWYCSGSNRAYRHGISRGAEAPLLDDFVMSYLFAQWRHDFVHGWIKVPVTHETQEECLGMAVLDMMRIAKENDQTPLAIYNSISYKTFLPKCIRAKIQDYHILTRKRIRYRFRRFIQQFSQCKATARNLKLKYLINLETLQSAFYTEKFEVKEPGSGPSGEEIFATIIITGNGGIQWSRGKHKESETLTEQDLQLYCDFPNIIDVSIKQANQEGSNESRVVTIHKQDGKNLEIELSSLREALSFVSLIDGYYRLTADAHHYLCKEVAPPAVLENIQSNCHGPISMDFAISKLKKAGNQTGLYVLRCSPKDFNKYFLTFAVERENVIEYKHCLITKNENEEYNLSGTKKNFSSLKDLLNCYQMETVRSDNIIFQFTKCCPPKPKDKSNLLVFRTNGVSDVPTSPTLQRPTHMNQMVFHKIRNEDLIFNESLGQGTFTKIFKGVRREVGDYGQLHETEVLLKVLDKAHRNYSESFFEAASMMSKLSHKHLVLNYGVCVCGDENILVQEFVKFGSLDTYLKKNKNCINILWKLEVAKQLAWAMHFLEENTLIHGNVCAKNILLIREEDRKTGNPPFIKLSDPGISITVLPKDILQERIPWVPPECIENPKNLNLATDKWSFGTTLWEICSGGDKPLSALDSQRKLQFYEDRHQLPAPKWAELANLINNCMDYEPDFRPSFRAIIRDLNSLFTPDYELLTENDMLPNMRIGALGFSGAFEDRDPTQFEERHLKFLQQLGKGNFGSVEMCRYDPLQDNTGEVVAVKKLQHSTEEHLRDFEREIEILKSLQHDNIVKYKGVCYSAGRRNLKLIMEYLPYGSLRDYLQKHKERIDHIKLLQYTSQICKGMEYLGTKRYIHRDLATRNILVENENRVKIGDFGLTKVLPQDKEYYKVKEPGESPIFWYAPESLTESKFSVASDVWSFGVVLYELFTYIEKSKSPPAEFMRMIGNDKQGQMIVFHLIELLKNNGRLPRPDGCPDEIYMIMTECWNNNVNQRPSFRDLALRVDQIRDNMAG

Row | pIC50 (IKKε) | pIC50 (hJAK2) | pIC50 (TBK1) | SMILES
1 | 6.55 | ≤ 6.00 | 7.12 | C[C@@H](N)C(=O)N1CC[C@H](Oc2ccc(-c3ncnc(Nc4ccc(N5CCN(C6COC6)CC5)cc4)n3)cc2C#N)[C@H](F)C1 [Example 433, 2-(((3R,4S)-1-((R)-2-aminopropanoyl)-3-fluoropiperidin-4-yl)oxy)-5-(4-((4-(4-(oxetan-3-yl)piperazin-1-yl)phenyl)amino)-1,3,5-triazin-2-yl)benzonitrile]
2 | 6.53 | ≤ 6.00 | 6.39 | N#Cc1cc(-c2ncnc(Nc3ccc(N4CCN(C5COC5)CC4)cc3)n2)ccc1O[C@@H]1CCN(C(=O)c2nc(=O)[nH][nH]2)C1 [Example 435, (R)-5-(4-((4-(4-(oxetan-3-yl)piperazin-1-yl)phenyl)amino)-1,3,5-triazin-2-yl)-2-((1-(5-oxo-2,5-dihydro-1H-1,2,4-triazole-3-carbonyl)pyrrolidin-3-yl)oxy)benzonitrile]
3 | 7.29 | 6.96 | 7.66 | CC1(C)CNC[C@@H](F)[C@H]1Oc1ccc(-c2ncnc(Nc3ccc(N4CCN(C5COC5)CC4)cc3)n2)cc1C#N [Example 440, 2-(((4S,5R)-5-fluoro-3,3-dimethylpiperidin-4-yl)oxy)-5-(4-((4-(4-(oxetan-3-yl)piperazin-1-yl)phenyl)amino)-1,3,5-triazin-2-yl)benzonitrile]
4 | 7.06 | 6.32 | 7.57 | CC1(C)CN(C(=O)[C@@H]2CCC(=O)N2)C[C@H](F)[C@@H]1Oc1ccc(-c2ncnc(Nc3ccc(N4CCN(C5COC5)CC4)cc3)n2)cc1C#N [Example 444]
5 | 7.48 | 6.82 | 7.32 | N#Cc1cc(-c2ncnc(Nc3ccc(N4CCN(C5COC5)CC4)cc3)n2)ccc1OC1CNC(=O)C(F)(F)C1 (stereo not drawn) [Example 446, 2-((5,5-difluoro-6-oxopiperidin-3-yl)oxy)-5-(4-((4-(4-(oxetan-3-yl)piperazin-1-yl)phenyl)amino)-1,3,5-triazin-2-yl)benzonitrile]
6 | 8.52 | 7.32 | 8.52 | CC1(C)CN(C(=O)CC#N)C[C@@H](F)[C@H]1Oc1ccc(-c2ncnc(Nc3ccc(N4CCN(C5COC5)CC4)cc3)n2)cc1C#N [Example 450, 2-(((4S,5R)-1-(2-cyanoacetyl)-5-fluoro-3,3-dimethylpiperidin-4-yl)oxy)-5-(4-((4-(4-(oxetan-3-yl)piperazin-1-yl)phenyl)amino)-1,3,5-triazin-2-yl)benzonitrile]
7 | 6.24 | ≤ 6.00 | 7.41 | N#Cc1cc(-c2ncnc(Nc3cnn(C(F)F)c3)n2)ccc1O[C@H]1CCNC[C@H]1F [Example 453, 5-(4-((1-(difluoromethyl)-1H-pyrazol-4-yl)amino)-1,3,5-triazin-2-yl)-2-(((3R,4S)-3-fluoropiperidin-4-yl)oxy)benzonitrile]
8 | 8.40 | ≤ 6.00 | 8.52 | C[C@H](O)C(=O)N1CC[C@H](Oc2ccc(-c3ncnc(Nc4ccc(N5CCN(C6COC6)CC5=O)cc4)n3)cc2C#N)[C@H](F)C1 [Example 462, 2-(((3R,4S)-3-fluoro-1-((S)-2-hydroxypropanoyl)piperidin-4-yl)oxy)-5-(4-((4-(4-(oxetan-3-yl)-2-oxopiperazin-1-yl)phenyl)amino)-1,3,5-triazin-2-yl)benzonitrile]
9 | 7.17 | 6.57 | 7.52 | Cn1cc(C(O)C(=O)N2CC[C@H](Oc3ccc(-c4ncnc(Nc5ccc(N6CCN(C7COC7)CC6)cc5)n4)cc3C#N)[C@H](F)C2)cn1 (stereo partly drawn) [Example 463, 2-(((3R,4S)-3-fluoro-1-(2-hydroxy-2-(1-methyl-1H-pyrazol-4-yl)acetyl)piperidin-4-yl)oxy)-5-(4-((4-(4-(oxetan-3-yl)piperazin-1-yl)phenyl)amino)-1,3,5-triazin-2-yl)benzonitrile]
10 | 6.44 | 6.15 | 6.84 | CC(C)[C@@H](O)C(=O)N1CC[C@H](Oc2ccc(-c3ncnc(Nc4ccc(N5CCN(C6COC6)CC5)cc4)n3)cc2C#N)[C@H](F)C1 [Example 465, 2-(((3R,4S)-3-fluoro-1-((R)-2-hydroxy-3-methylbutanoyl)piperidin-4-yl)oxy)-5-(4-((4-(4-(oxetan-3-yl)piperazin-1-yl)phenyl)amino)-1,3,5-triazin-2-yl)benzonitrile]

The next lines start with the compound.

Row | SMILES | pIC50 (IKKε) | pIC50 (hJAK2) | pIC50 (TBK1)
11 | Cn1cc(C(=O)N2C[C@@H](F)[C@@H](Oc3ccc(-c4ncnc(Nc5ccc(N6CCN(C7COC7)CC6)cc5)n4)cc3C#N)C(C)(C)C2)nn1 [Example 441, 2-(((4S,5R)-5-fluoro-3,3-dimethyl-1-(1-methyl-1H-1,2,3-triazole-4-carbonyl)piperidin-4-yl)oxy)-5-(4-((4-(4-(oxetan-3-yl)piperazin-1-yl)phenyl)amino)-1,3,5-triazin-2-yl)benzonitrile] | 8.70 | 7.06 | 8.52
12 | CC1(C)CN(C(=O)c2ccn[nH]2)C[C@@H](F)[C@H]1Oc1ccc(-c2ncnc(Nc3ccc(N4CCN(C5COC5)CC4)cc3)n2)cc1C#N [Example 442, 2-(((4S,5R)-5-fluoro-3,3-dimethyl-1-(1H-pyrazole-5-carbonyl)piperidin-4-yl)oxy)-5-(4-((4-(4-(oxetan-3-yl)piperazin-1-yl)phenyl)amino)-1,3,5-triazin-2-yl)benzonitrile] | 8.52 | 6.90 | 8.52
13 | CC1(C)CN(C(=O)CCO)C[C@@H](F)[C@H]1Oc1ccc(-c2ncnc(Nc3ccc(N4CCN(C5COC5)CC4)cc3)n2)cc1C#N [Example 443, 2-(((4S,5R)-5-fluoro-1-(3-hydroxypropanoyl)-3,3-dimethylpiperidin-4-yl)oxy)-5-(4-((4-(4-(oxetan-3-yl)piperazin-1-yl)phenyl)amino)-1,3,5-triazin-2-yl)benzonitrile] | 8.22 | 6.99 | 8.52
14 | CC1(C)CN(C(=O)[C@@H]2CCC(=O)N2)C[C@@H](F)[C@H]1Oc1ccc(-c2ncnc(Nc3ccc(N4CCN(C5COC5)CC4)cc3)n2)cc1C#N [Example 445, 2-(((4S,5R)-5-fluoro-3,3-dimethyl-1-((S)-5-oxopyrrolidine-2-carbonyl)piperidin-4-yl)oxy)-5-(4-((4-(4-(oxetan-3-yl)piperazin-1-yl)phenyl)amino)-1,3,5-triazin-2-yl)benzonitrile] | 8.30 | 7.05 | 8.30
15 | NC(=O)c1cc(-c2ncnc(Nc3ccc(N4CCN(C5COC5)CC4)cc3)n2)ccc1OC1CNC(=O)C(F)(F)C1 (stereo not drawn) [Example 447, 2-((5,5-difluoro-6-oxopiperidin-3-yl)oxy)-5-(4-((4-(4-(oxetan-3-yl)piperazin-1-yl)phenyl)amino)-1,3,5-triazin-2-yl)benzamide] | 6.71 | 7.82 | 7.19
16 | N#Cc1cc(-c2ncnc(Nc3ccc(N4CCN(C5COC5)CC4)cc3)n2)ccc1O[C@H]1CCN(C(=O)c2ccnn2CCO)C[C@H]1F [Example 448, 2-(((3R,4S)-3-fluoro-1-(1-(2-hydroxyethyl)-1H-pyrazole-5-carbonyl)piperidin-4-yl)oxy)-5-(4-((4-(4-(oxetan-3-yl)piperazin-1-yl)phenyl)amino)-1,3,5-triazin-2-yl)benzonitrile] | 7.08 | 6.67 | 7.27
17 | CC1(C)CN(C(=O)CC#N)C[C@H](F)[C@@H]1Oc1ccc(-c2ncnc(Nc3ccc(N4CCN(C5COC5)CC4)cc3)n2)cc1C#N [Example 449, 2-(((4R,5S)-1-(2-cyanoacetyl)-5-fluoro-3,3-dimethylpiperidin-4-yl)oxy)-5-(4-((4-(4-(oxetan-3-yl)piperazin-1-yl)phenyl)amino)-1,3,5-triazin-2-yl)benzonitrile] | 7.23 | 6.35 | 7.46
18 | Cc1n[nH]c(C(=O)N2CC[C@H](Oc3ccc(-c4ncnc(Nc5ccc(N6CCN(C7COC7)CC6)cc5)n4)cc3C#N)C(F)(F)C2)n1 [Example 452, (S)-2-((3,3-difluoro-1-(3-methyl-1H-1,2,4-triazole-5-carbonyl)piperidin-4-yl)oxy)-5-(4-((4-(4-(oxetan-3-yl)piperazin-1-yl)phenyl)amino)-1,3,5-triazin-2-yl)benzonitrile] | 9.00 | 7.64 | 8.52
19 | CC(C)(C)n1cc(Nc2ncnc(-c3ccc(O[C@H]4CCN(C(=O)CCO)C[C@H]4F)c(C#N)c3)n2)cn1 [Example 458, 5-(4-((1-(tert-butyl)-1H-pyrazol-4-yl)amino)-1,3,5-triazin-2-yl)-2-(((3R,4S)-3-fluoro-1-(3-hydroxypropanoyl)piperidin-4-yl)oxy)benzonitrile] | 7.21 | 6.65 | 7.64
20 | CC(C)(C)n1cc(Nc2ncnc(-c3ccc(O[C@H]4CCN(C(=O)CC#N)C[C@H]4F)c(C#N)c3)n2)cn1 [Example 459, 5-(4-((1-(tert-butyl)-1H-pyrazol-4-yl)amino)-1,3,5-triazin-2-yl)-2-(((3R,4S)-1-(2-cyanoacetyl)-3-fluoropiperidin-4-yl)oxy)benzonitrile] | 7.66 | 6.97 | 7.96
21 | C[C@H](O)C(=O)N1CC[C@H](Oc2ccc(-c3ncnc(Nc4ccc(N5CCO[C@@H](CO)C5)cc4)n3)cc2C#N)C(F)(F)C1 [Example 460, 2-(((S)-3,3-difluoro-1-((S)-2-hydroxypropanoyl)piperidin-4-yl)oxy)-5-(4-((4-((R)-2-(hydroxymethyl)morpholino)phenyl)amino)-1,3,5-triazin-2-yl)benzonitrile] | 9.00 | 6.88 | 8.70
22 | CC(C)[C@H](O)C(=O)N1CC[C@H](Oc2ccc(-c3ncnc(Nc4ccc(N5CCN(C6COC6)CC5)cc4)n3)cc2C#N)[C@H](F)C1 [Example 461, 2-(((3R,4S)-3-fluoro-1-((S)-2-hydroxy-3-methylbutanoyl)piperidin-4-yl)oxy)-5-(4-((4-(4-(oxetan-3-yl)piperazin-1-yl)phenyl)amino)-1,3,5-triazin-2-yl)benzonitrile] | 7.20 | 6.03 | 7.80
